Assays:
DIPGX29 [1] = H3.3 K27M diffuse intrinsic pontine glioma line; test: maximal growth inhibition (yFin) relative to DMSO / staurosporine; higher = more efficacious
Outline: (§1)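 Compounds were delivered by pin tool as a 10-point threefold dilution series with a mean top concentration of 35 μM, in triplicate, to patient-derived pHGG/DIPG cell lines and astrocyte controls growing on 1% Geltrex-coated 384-well plates. Incubation lasted 7 days, or 3 days for iAstro, at 37 °C with 5% CO2. EC50 and maximal response (yFin) come from the three- or four-parameter log-logistic fit with the lowest AICc, applied to pooled, log2-transformed CellTiter-Glo luminescence normalised per plate to % activity between solvent (negative) and positive control wells.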

HGGX39 [2] = paediatric high-grade glioma line; test: as above
Outline: as §1

DIPGX37 [3] = H3.3 K27M diffuse intrinsic pontine glioma line; test: as above
Outline: as §1

HGGX6 [4] = H3.3 G34R paediatric high-grade glioma line; test: as above
Outline: as §1

DIPGX29 [5] = test: EC50 (inflection of fitted growth-inhibition curve) (log10 M)
Outline: as §1

HGGX39 [6] = test: as above
Outline: as §1

DIPGX37 [7] = test: as above
Outline: as §1

HGGX6 [8] = test: as above
Outline: as §1

DIPGX29 [9] = test: area under dose-response curve of % growth inhibition (log2 RLU vs DMSO / staurosporine), 1e-11 to 1e-4 M (% x log10 M); higher = more growth inhibition
Outline: (§2)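 Area under the curve was derived with the trapezoid rule from a fitted log-logistic curve, switching to a smoothing spline if the sigmoid fit failed. It rested on per-plate % activity between solvent and positive controls, calculated from log2-transformed CellTiter-Glo luminescence after 7 days of exposure (3 days for iAstro) at 37 °C, 5% CO2. Patient-derived pHGG/DIPG lines and astrocytes on 1% Geltrex-coated 384-well plates received a 10-point threefold dilution series, mean top concentration 35 μM, in triplicate.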

HGGX39 [10] = test: as above
Outline: as §2

DIPGX37 [11] = test: as above
Outline: as §2

HGGX6 [12] = test: as above
Outline: as §2

SMILES | maximal growth inhibition (DIPGX29 [1]) [%] | maximal growth inhibition (HGGX39 [2]) [%] | maximal growth inhibition (DIPGX37 [3]) [%] | maximal growth inhibition (HGGX6 [4]) [%] | EC50 (log10 M) (DIPGX29 [5]) | EC50 (log10 M) (HGGX39 [6]) | EC50 (log10 M) (DIPGX37 [7]) | EC50 (log10 M) (HGGX6 [8]) | area under dose-response curve (DIPGX29 [9]) | area under dose-response curve (HGGX39 [10]) | area under dose-response curve (DIPGX37 [11]) | area under dose-response curve (HGGX6 [12])
CC[C@H](CC#N)OC(=O)N[C@@H](C)c1cccc(NC(=O)Nc2ccc(-c3cnco3)c(OC)c2)c1 [AVN-944] | 34.3 | 39.3 | 35.2 | 27.9 | -6.32 | -5.67 | -6.4 | -5.95 | 79.5 | 54.3 | 84.4 | 48
Cc1ccc(NC2=CC(=O)c3sc(C)nc3C2=O)cc1 [RYUVIDINE] | 97.5 | 98.1 | 110 | 90.5 | -6.12 | -5.76 | -5.7 | -6.18 | 207 | 169 | 187 | 197
CCCCCCCCCCCC[N+](C)(C)CCOc1ccccc1 [DOMIPHEN] | 80.5 | 81 | 85.2 | 71.7 | -5.18 | -5.59 | -5.28 | -5.11 | 95.4 | 129 | 109 | 79.9
CN1CCN(CCCN2c3ccccc3Sc3ccc(C(F)(F)F)cc32)CC1 [TRIFLUOPERAZINE] | 82.9 | 90.3 | 87.2 | 80.2 | -4.89 | -4.86 | -4.88 | -4.78 | 74.2 | 87.4 | 76.8 | 62.3
O=C(CCCCCCC(=O)Nc1ccccc1)NO [VORINOSTAT] | 74.2 | 64.3 | 68 | 76.9 | -4.98 | -4.71 | -4.65 | -4.68 | 77.5 | 60.1 | 58.2 | 83.9
O=C(N/N=C/c1ccc([N+](=O)[O-])o1)c1ccc(O)cc1 [NIFUROXAZIDE] | 81.1 | 49.3 | 81.6 | 74.2 | -4.78 | -4.81 | -4.75 | -4.77 | 73.5 | 39.4 | 78.2 | 56.6
NCCOc1cc(C(=O)Nc2cc(OCCN)c3ccccc3n2)nc(C(=O)Nc2cc(OCCN)c3ccccc3n2)c1 [PYRIDOSTATIN] | 61 | 59.6 | 31.7 | 56.9 | -5.01 | -4.99 | -5 | -5.03 | 74 | 58.1 | 54 | 82.2
CC[C@@]1(O)C[C@H](O[C@H]2C[C@H](N(C)C)[C@H](O[C@H]3C[C@H](O)[C@H](O[C@H]4CCC(=O)[C@H](C)O4)[C@H](C)O3)[C@H](C)O2)c2c(cc3c(c2O)C(=O)c2c(O)cccc2C3=O)[C@H]1C(=O)OC [ACLARUBICIN] | 58.7 | 65.6 | 62.1 | 62.1 | -5.38 | -5.35 | -6.79 | -5.33 | 96.6 | 118 | 173 | 111
CCN(CC)CCOc1ccc(C(=C(Cl)c2ccccc2)c2ccccc2)cc1 [CLOMIPHENE] | 77 | 81.6 | 84.8 | 71.4 | -4.92 | -5.71 | -5.2 | -5.11 | 71.2 | 139 | 102 | 80.2
CCOC(=O)C1=C(COCCN)NC(C)=C(C(=O)OC)C1c1ccccc1Cl (stereo not given) [AMLODIPINE] | 80.4 | 91.4 | 88 | 85.6 | -4.86 | -4.83 | -4.82 | -4.75 | 69.2 | 75.8 | 72.4 | 64.5
CCC(C)(C)c1ccc(CC(C)CN2C[C@@H](C)O[C@@H](C)C2)cc1 (stereo not given in full) [AMOROLFINE] | 33.2 | 72.1 | 48 | 41.6 | -5.09 | -5.11 | -5.29 | -5.36 | 47.6 | 103 | 62.1 | 58.4
Cc1c(-c2ccc(O)cc2)n(Cc2ccc(OCCN3CCCCCC3)cc2)c2ccc(O)cc12 [BAZEDOXIFENE] | 79.1 | 87.3 | 83.5 | 75.9 | -4.97 | -5 | -4.91 | -4.93 | 76.7 | 87.8 | 75.4 | 70.5
CCOC(=O)Nc1cc(-c2ccc(C)c(NS(C)(=O)=O)c2)nn2c(C)nnc12 [BROMOSPORINE] | 25.2 | 42.7 | 53.4 | 21.4 | -5.25 | -5.01 | -5.23 | -5.51 | 32.2 | 43.6 | 66.5 | 33
COc1cc2nc(N3CCCC3)nc(NCCCCCN3CCCC3)c2cc1OC [UNC0379] | 71.8 | 72.1 | 71.5 | 70.1 | -4.88 | -4.89 | -5.05 | -4.91 | 70.8 | 69.3 | 75.1 | 73.6
CCCCOc1ccc(CC(=O)NO)cc1 [BUFEXAMAC] | 57.1 | 95.6 | 76.7 | 79.2 | -4.28 | -4.28 | -4.2 | -4.33 | 15.7 | 27.2 | 15.4 | 25.5

— the supplement of paper PMC8253809
